Measurements: patent US8859573B2, “Pyrimidinone and pyridinone compounds for use in the treatment of diseases or conditions mediated by Lp-PLA2” (Glaxo Group Limited, priority 2010, dated 2014)
pIC50: −log10 of the molar value.

target: T1, recombinant human Lp-PLA2 (Homo sapiens, UniProt Q13093); experiment: Recombinant human Lp-PLA2 assay (rhLp-PLA2, PED6 assay); type: biochemical; settings: upper limit for pIC50 in this assay is 9.3
T1 sequence (Q13093 22-441): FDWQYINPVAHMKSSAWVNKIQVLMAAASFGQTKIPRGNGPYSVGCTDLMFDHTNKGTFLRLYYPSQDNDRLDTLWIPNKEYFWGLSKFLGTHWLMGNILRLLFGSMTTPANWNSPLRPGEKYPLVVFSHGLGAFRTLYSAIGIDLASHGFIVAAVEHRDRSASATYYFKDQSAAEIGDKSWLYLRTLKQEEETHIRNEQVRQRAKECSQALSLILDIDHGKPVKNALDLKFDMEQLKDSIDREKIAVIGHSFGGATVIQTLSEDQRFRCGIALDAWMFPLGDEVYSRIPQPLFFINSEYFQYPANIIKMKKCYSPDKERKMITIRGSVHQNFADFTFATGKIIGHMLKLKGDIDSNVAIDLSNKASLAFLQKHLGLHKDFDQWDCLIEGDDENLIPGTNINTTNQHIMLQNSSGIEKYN
Text: (1) Recombinant Human Lp-PLA2 Assay (rhLp-PLA2) (Also Referred to as “PED6” Assay)
N-((6-(2,4-dinitrophenyl)amino)-hexanoyl)-2-(4,4-difluoro-5,7-dimethyl-4-bora-3a,4a-diaza-s-indacene-3-pentanoyl)-1-hexadecanoyl-sn-glycero-3-phosphoethanolamine, triethylammonium salt (PED6) is a commercially available fluorescently-labelled phospholipid, which is commercially available from Molecular Probes. There is a quenching para-nitro phenyl (PNP) group in the sn3 position and a Bodipy fluorescein (FL) group in the sn2 position. Upon cleavage with Lp-PLA2, the Bodipy F1 group is liberated and then may result in an increase in fluorescence. Inhibitors of Lp-PLA2 therefore prevent this cleavage and no fluorescent increase is observed.
The PED6 assay was run as an […] 10 μL assay. Compounds source plate was prepared by making 1:3 (by volume) serial dilution of the compounds into pure DMSO on 384-well microplate. Then, 0.01 μL of compounds on compound source plate were transferred into 384 well Greiner 784076 (black) plates by ECHO liquid dispenser. 5 μL of recombinant human Lp-PLA2 enzyme (2 nM rhLp-PLA2 in assay buffer of 50 mM HEPES, pH7.4, 150 mM NaCl, 1 mM CHAPS) was added to each well of the plate with compounds. Plates were centrifuged for 10 sec at 500 rpm. After 30 minutes preincubation, […] substrate (4 μM PED6 [from 5 mM DMSO stock] in assay buffer of 50 mM HEPES, pH7.4, 150 mM NaCl, 1 mM CHAPS) was added to 384 well Greiner 784076 (black) plates. Plates were centrifuged for 10 sec at 500 rpm. Plate was covered to protect from light and incubated for 20 min at room temperature. Plates were read for fluorescence intensity at ex: 480/em: 540 using ViewLux microplate imager. PIC50 data, curve and QC analysis was conducted by using XL fit module in Excel.

Cn1cc(Cn2ccc(OCc3ccc(Oc4cccc(C(F)(F)F)c4)cc3)cc2=O)cn1 [Example 25, 1-[(1-Methyl-1H-pyrazol-4-yl)methyl]-4-{[(4-{[3-(trifluoromethyl)phenyl]oxy}-phenyl)methyl]oxy}-2(1H)-pyridinone] and Cc1ccc(Oc2ccc(COc3ccn(Cc4cnn(C)c4)c(=O)c3)cc2)cc1F [Example 28, 4-[({4-[(3-Fluoro-4-methylphenyl)oxy]phenyl}methyl)oxy]-1-[(1-methyl-1H-pyrazol-4-yl)methyl]-2(1H)-pyridinone] cannot be ordered by pIC50: < 8.00 for the first, < 8.00 for the second.

O=c1cc(OCc2ccc(Oc3ccc(Cl)c(C(F)(F)F)c3)cc2)ccn1Cc1cncnc1 [Example 26, 4-{[(4-{[4-Chloro-3-(trifluoromethyl)phenyl]oxy}phenyl)methyl]oxy}-1-(5-pyrimidinylmethyl)-2(1H)-pyridinone] and COc1ncc(Cn2cc(F)c(OCCc3ccc(Oc4cccc(C)n4)cc3)nc2=O)cn1 [Example 62, 5-fluoro-1-((2-methoxypyrimidin-5-yl)methyl)-4-(4-((6-methylpyridin-2-yl)oxy)phenethoxy)pyrimidin-2(1H)-one] cannot be ordered by pIC50: < 8.00 for the first, < 8.00 for the second.

Cc1cccc(Oc2ccc(CCOc3nc(=O)n(Cc4cnn(C)c4)cc3F)cc2)n1 [Example 61, 5-fluoro-1-((1-methyl-1H-pyrazol-4-yl)methyl)-4-(4-((6-methylpyridin-2-yl)oxy)phenethoxy)pyrimidin-2(1H)-one] was tested, and the pIC50 was < 8.00.

target: T2, Lp-PLA2 from plasma (Homo sapiens, UniProt Q13093); experiment: Lp-PLA2 human plasma assay (Thio-PAF assay); type: biochemical; settings: pooled human plasma; read-out: pIC50 values in the thio-PAF assay (converted)
T2 construct: from tissue; host or cells: pooled human plasma
T2 sequence (Q13093 22-441): T1 sequence (Q13093 22-441)
Text: (3) Lipoprotein-Associated Phospholipase A2 (Lp-PLA2) Human Plasma Assay (Also Referred to as “Thio-PAF Assay”)
The human plasma assay utilizes a thioester analog of PAF (phosphatidylcholine), where hydrolysis yields to the formation of a phospholipid containing a free thiol group. The amount of thiol is quantitated continuously by reacting with CPM (7-diethylamino-3-(4′-maleimidylphenyl)-4-methylcoumarin), a maleimide which increases in fluoresence after Michael addition of thiols. This assay may detect the activity of Lp-PLA2 from plasma, as determined by specific inhibition by Lp-PLA2 inhibitors.
The thio-PAF assay was run as a quenched 15 μL assay. Compounds source plate was prepared by making 1:3 (by volume) serial dilution of the compounds into pure DMSO on 384-well microplate. 0.01 μL of compounds on compound source plate were transferred to 384 well Greiner 784076 (black) low-volume plates by ECHO liquid dispenser. 8 μL pooled human plasma, which was previously aliquoted and frozen, was added. Plates were centrifuged for 10 sec at 500 rpm. After 30 minutes preincubation, 2 μL of substrate (2.5 mM thio-PAF, 3.2 mM NEM (N-ethylmaleimide) [made fresh daily in DMSO], and 32 μM CPM [from a DMSO stock] in assay buffer of 50 mM HEPES, pH7.4, 150 mM NaCl, 1 mM CHAPS was added to 384 well Greiner 784076 (black) low-volume plates by BRAVO liquid handling station. Plates were centrifuged for 10 sec at 500 rpm. Plate was covered to protect from light and incubated for 2 min at room temperature. Reaction was quenched with 5 μL of 5% aqueous trifluoroacetic acid (TFA). Plates were covered to protect from light and incubated for 40 min at room temperature. Plates were read at ex: 380/em: 485 using-Envision microplate reader. PIC50 data, curve and QC analysis was conducted by using XLFit module in Excel.

Cn1cc(Cn2cc(F)c(OCCc3ccc(Oc4ccc(Cl)c(C(F)(F)F)c4)cc3)nc2=O)cn1 [Example 29, 4-{[2-(4-{[4-Chloro-3-(trifluoromethyl)phenyl]oxy}phenyl)ethyl]oxy}-5-fluoro-1-[(1-methyl-1H-pyrazol-4-yl)methyl]-2(1H)-pyrimidinone] and Cn1cc(Cn2cc(Cl)c(OCCc3ccc(Oc4ccc(Cl)c(C(F)(F)F)c4)cc3)nc2=O)cn1 [Example 30, 5-chloro-4-{[2-(4-{[4-Chloro-3-(trifluoromethyl)phenyl]oxy}phenyl)ethyl]oxy}-1-[(1-methyl-1H-pyrazol-4-yl)methyl]-2(1H)-pyrimidinone] cannot be ordered by IC50: ≤ 100 nM for the first, ≤ 100 nM for the second.

COc1ncc(Cn2cc(F)c(OCCc3cnc(Oc4ccc(Cl)c(C(F)(F)F)c4)c(F)c3)nc2=O)cn1 [Example 34, 4-(2-(6-(4-chloro-3-(trifluoromethyl)phenoxy)-5-fluoropyridin-3-yl)ethoxy)-5-fluoro-1-((2-methoxypyrimidin-5-yl)methyl)pyrimidin-2(1H)-one] and COc1ncc(Cn2cc(Cl)c(OCCc3cnc(Oc4ccc(F)c(C(F)(F)F)c4)c(F)c3)nc2=O)cn1 [Example 37, 5-chloro-4-(2-(5-fluoro-6-(4-fluoro-3-(trifluoromethyl)phenoxy)pyridin-3-yl)ethoxy)-1-((2-methoxypyrimidin-5-yl)methyl)pyrimidin-2(1H)-one] cannot be ordered by IC50: ≤ 100 nM for the first, ≤ 100 nM for the second.

COc1ncc(Cn2cc(F)c(OCCc3ccc(Oc4ccc(Cl)c(C(F)(F)F)c4)cc3)nc2=O)cn1 [Example 36, 4-(4-(4-chloro-3-(trifluoromethyl)phenoxy)phenethoxy)-5-fluoro-1-((2-methoxypyrimidin-5-yl)methyl)pyrimidin-2(1H)-one] and COc1ncc(Cn2cc(F)c(OCCc3ccc(Oc4cccc(C(F)(F)F)n4)cc3)nc2=O)cn1 [Example 65, 5-fluoro-1-((2-methoxypyrimidin-5-yl)methyl)-4-(4-((6-(trifluoromethyl)pyridin-2-yl)oxy)phenethoxy)pyrimidin-2(1H)-one] cannot be ordered by IC50: ≤ 100 nM for the first, ≤ 1000 nM for the second.

Cn1cc(Cn2cc(Cl)c(OCCc3cnc(Oc4ccc(F)c(C(F)(F)F)c4)c(F)c3)nc2=O)cn1 [Example 38, 5-chloro-4-(2-(5-fluoro-6-(4-fluoro-3-(trifluoromethyl)phenoxy)pyridin-3-yl)ethoxy)-1-((1-methyl-1H-pyrazol-4-yl)methyl)pyrimidin-2(1H)-one] and Cn1cc(Cn2cc(F)c(OCCc3cnc(Oc4ccc(F)c(C(F)(F)F)c4)c(F)c3)nc2=O)cn1 [Example 42, 5-fluoro-4-(2-(5-fluoro-6-(4-fluoro-3-(trifluoromethyl)phenoxy)pyridin-3-yl)ethoxy)-1-((1-methyl-1H-pyrazol-4-yl)methyl)pyrimidin-2(1H)-one] cannot be ordered by IC50: ≤ 100 nM for the first, ≤ 100 nM for the second.

Cn1cc(Cn2cc(F)c(OCCc3ccc(Oc4ccc(F)c(C(F)(F)F)c4)nc3)nc2=O)cn1 [Example 39, 5-fluoro-4-(2-(6-(4-fluoro-3-(trifluoromethyl)phenoxy)pyridin-3-yl)ethoxy)-1-((1-methyl-1H-pyrazol-4-yl)methyl)pyrimidin-2(1H)-one] and Cn1cc(Cn2cc(F)c(OCCc3ccc(Oc4ccc(Cl)c(C(F)(F)F)c4)nc3)nc2=O)cn1 [Example 40, 4-(2-(6-(4-chloro-3-(trifluoromethyl)phenoxy)pyridin-3-yl)ethoxy)-5-fluoro-1-((1-methyl-1H-pyrazol-4-yl)methyl)pyrimidin-2(1H)-one] cannot be ordered by IC50: ≤ 100 nM for the first, ≤ 100 nM for the second.

COc1ncc(Cn2cc(F)c(OCCc3cnc(Oc4ccc(F)c(C(F)(F)F)c4)c(F)c3)nc2=O)cn1 [Example 43, 5-fluoro-4-(2-(5-fluoro-6-(4-fluoro-3-(trifluoromethyl)phenoxy)pyridin-3-yl)ethoxy)-1-((2-methoxypyrimidin-5-yl)methyl)pyrimidin-2(1H)-one] and COc1ncc(Cn2cc(Cl)c(OCc3ccc(Oc4ccc(F)c(F)c4)c(F)c3)nc2=O)cn1 [Example 54, 5-chloro-4-((4-(3,4-difluorophenoxy)-3-fluorobenzyl)oxy)-1-((2-methoxypyrimidin-5-yl)methyl)pyrimidin-2(1H)-one] cannot be ordered by IC50: ≤ 100 nM for the first, ≤ 100 nM for the second.

Cn1cc(Cn2cc(Cl)c(OCCc3ccc(Cc4ccc(Cl)c(C(F)(F)F)c4)cc3)nc2=O)cn1 [Example 44, 5-chloro-4-(4-(4-chloro-3-(trifluoromethyl)benzyl)phenethoxy)-1-((1-methyl-1H-pyrazol-4-yl)methyl)pyrimidin-2(1H)-one] and Cn1cc(Cn2cc(F)c(OCCc3ccc(Oc4ccc(Cl)c(C(F)(F)F)c4)cn3)nc2=O)cn1 [Example 55, 4-(2-(5-(4-chloro-3-(trifluoromethyl)phenoxy)pyridin-2-yl)ethoxy)-5-fluoro-1-((1-methyl-1H-pyrazol-4-yl)methyl)pyrimidin-2(1H)-one] cannot be ordered by IC50: ≤ 100 nM for the first, ≤ 100 nM for the second.

CCn1cc(F)c(OCCc2ccc(Oc3ccc(Cl)c(C(F)(F)F)c3)nc2)nc1=O [Example 52, 4-(2-(6-(4-chloro-3-(trifluoromethyl)phenoxy)pyridin-3-yl)ethoxy)-1-ethyl-5-fluoropyrimidin-2(1H)-one] and Cn1cc(Cn2cc(F)c(OCCc3ccc(Oc4cccc(C(F)(F)F)n4)cc3)nc2=O)cn1 [Example 64, 5-fluoro-1-((1-methyl-1H-pyrazol-4-yl)methyl)-4-(4-((6-(trifluoromethyl)pyridin-2-yl)oxy)phenethoxy)pyrimidin-2(1H)-one] cannot be ordered by IC50: ≤ 1000 nM for the first, ≤ 1000 nM for the second.
